Source: BindingDB's records for doi:10.7270/Q2TX3CTT (Broad Institute, 2010)
Counter-ions that a name gives are not always drawn.

Molecular target: Glycogen synthase kinase-3 beta (Homo sapiens, UniProt P49841)
Assay: concentration-response blocking of human GSK3B – biochemical, luminescence, cell-free homogeneous, retest, dose response (AID 434954)

Glycogen synthase kinase-3 beta, sequence (P49841 whole entry): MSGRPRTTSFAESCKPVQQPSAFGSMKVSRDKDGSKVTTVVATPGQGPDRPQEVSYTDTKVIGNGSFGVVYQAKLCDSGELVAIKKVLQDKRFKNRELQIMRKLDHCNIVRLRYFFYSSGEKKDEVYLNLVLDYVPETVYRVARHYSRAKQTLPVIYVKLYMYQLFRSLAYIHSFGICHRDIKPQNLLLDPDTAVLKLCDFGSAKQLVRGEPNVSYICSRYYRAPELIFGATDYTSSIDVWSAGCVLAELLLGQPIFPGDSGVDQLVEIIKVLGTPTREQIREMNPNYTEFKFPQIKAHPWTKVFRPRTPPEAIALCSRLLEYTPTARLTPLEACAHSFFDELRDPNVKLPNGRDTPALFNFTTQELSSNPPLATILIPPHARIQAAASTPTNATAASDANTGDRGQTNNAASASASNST

| EC50 [µM] | SMILES |
| --- | --- |
| > 300 | CCn1c(=O)cc(OCC(=O)N(C)c2ccccc2F)c2ccccc21 [2-(1-ethyl-2-oxidanylidene-quinolin-4-yl)oxy-N-(2-fluorophenyl)-N-methyl-ethanamide] |
| > 300 | CN1CCc2c(sc3c2c(=O)n(-c2cccc(Cl)c2)c2nncn32)C1 [MLS000084041] |
| 15.4 | O=C(c1ccc(Br)cc1)c1coc2ccc(O)cc12 [MLS001178337] |
| 3.82 | COc1cccc(C2C(C(=O)OCc3ccccc3)C(C)=Nc3ncnn32)c1OC (configuration not stated) [(phenylmethyl) 7-(2,3-dimethoxyphenyl)-5-methyl-1,7-dihydro-[1,2,4]triazolo[1,5-a]pyrimidine-6-carboxylate] |
| > 300 | CCOc1ccc(-c2csc3[n+]2CC[N-]3)cc1[N+](=O)[O-] |
| > 300 | CC1(C)CC(=O)C=C(Nc2ccc(F)cc2F)C1 |
| > 300 | CSc1nc2c(c(=O)[nH]1)C(c1cccs1)C1C(=O)CCCC1=N2 (configuration not stated) |
| > 300 | CN(Cc1ccccc1)S(=O)(=O)c1ccc2c(c1)NC(=O)CC(=O)N2 [N-benzyl-N-methyl-2,4-dioxo-1,5-dihydro-1,5-benzodiazepine-7-sulfonamide] |
| > 300 | O=C(Nc1ccccc1)C(=O)Nc1ccccn1 [N-Phenyl-N'-pyridin-2-yl-oxalamide] |
| > 300 | NC(=O)c1c(NC(=O)c2ccncc2)sc2c1CCCC2 |
| > 300 | CCN(CC)CCNc1nc(SC)nc2sc3c(c12)CCN(C)C3 |
| 2.74 | COc1ccc(OC)c(Nc2nc(NCCCN(C)C)nc(N)c2[N+](=O)[O-])c1 [3-[[4-amino-6-(2,5-dimethoxyanilino)-5-nitro-pyrimidin-2-yl]amino]propyl-dimethyl-amine] |
| > 300 | Cc1c(O)ccc2c(-c3ccccc3)cc(=O)oc12 [7-hydroxy-8-methyl-4-phenyl-1-benzopyran-2-one] |
| > 300 | CC(=O)Nc1ccc(S(=O)(=O)NCc2ccc(C)n2C)cc1 [N-[4-[(1,5-dimethylpyrrol-2-yl)methylsulfamoyl]phenyl]ethanamide] |
| > 300 | CCc1nn(CC(=O)NCCN2CCN(C)CC2)c(=O)c2cc3c(OC)cccc3n12 [MLS001110984] |
| 2.82 | COc1cccc(/C=C2/Sc3ccc(C(=O)NCCCN4CCCC4)cc3NC2=O)c1 |
| > 300 | CCCCc1cc(=O)oc2cc(C)c(CN3CCCC3)c(O)c12 [4-butyl-7-methyl-5-oxidanyl-6-(pyrrolidin-1-ylmethyl)chromen-2-one] |
| > 300 | CCc1nnc(NC(=O)c2cc(-c3ccccc3)nn2-c2ccccc2)s1 [SMR000152662] |
| > 300 | COc1cc(OC)c(OC)cc1CNCC1COc2ccccc2O1 (configuration not stated) [SMR000516658] |
| > 300 | c1ccc(CNc2nc(-c3cccnc3)nc3ccccc23)cc1 |
| > 300 | Cc1ccc2nc3c(cc2c1)c(NC(=O)C1CCCO1)nn3CC(C)C (configuration not stated) [SMR000148636] |
| > 300 | COc1ccc(OC)c(C(=O)c2coc3ccc(OC)cc23)c1 [MLS000108671] |
| > 300 | Cc1ccnc(NC(=O)c2cccc([N+](=O)[O-])c2C)c1 [2-methyl-N-(4-methylpyridin-2-yl)-3-nitro-benzamide] |

| EC50 [µM] | SMILES |
| --- | --- |
| > 300 | CC1=NC(=O)NC(c2ccc(O)cc2)C1C(=O)OCC1CCCO1 (configuration not stated) |
| > 300 | CC(=O)c1cccc(NC(=O)NN2CCN(C)CC2)c1 [1-(3-ethanoylphenyl)-3-(4-methylpiperazin-1-yl)urea] |
| > 300 | COc1ccc(/C=C/C(=O)NC2CCN(Cc3ccccc3)CC2)cc1OC [(E)-N-(1-benzylpiperidin-4-yl)-3-(3,4-dimethoxyphenyl)prop-2-enamide] |
| > 300 | CC(Cc1c[nH]c2ccccc12)NC(=O)OCCCl (configuration not stated) |
| > 300 | CCCn1c(SCC(=O)N2CCCCC2)nnc1-c1ccccn1 [1-piperidin-1-yl-2-[(4-propyl-5-pyridin-2-yl-1,2,4-triazol-3-yl)sulfanyl]ethanone] |
| > 300 | N#Cc1c(N)nc(-c2ccccc2)nc1-c1ccccc1 [4-amino-2,6-diphenyl-5-pyrimidinecarbonitrile] |
| > 300 | COc1ccc(N(C(=O)c2ccncc2)S(=O)(=O)c2cccc([N+](=O)[O-])c2)cc1 [SMR000668685] |
| > 300 | COc1ccc(N2CCN(CC(O)COc3c(OC)cccc3OC)CC2)cc1 (configuration not stated) [1-(2,6-dimethoxyphenoxy)-3-[4-(4-methoxyphenyl)piperazin-1-yl]propan-2-ol;hydrochloride] |
| > 300 | Cc1ccc(C(=O)c2coc3ccc(O)c(CN(C)C)c23)cc1 [(4-Dimethylaminomethyl-5-hydroxy-benzofuran-3-yl)-p-tolyl-methanone] |
| > 300 | CC1CCCC(C)N1C(=O)CN1C(=O)C(C)(C)Oc2ccc(C(=O)NC3CCCC3)cc21 (configuration not stated) |
| > 300 | NC(=O)c1ccc(Oc2ccc(Cl)c3ccccc23)c([N+](=O)[O-])c1 [4-(4-chloronaphthalen-1-yl)oxy-3-nitrobenzamide] |
| > 300 | CCCc1cc(=O)oc2cc(C)c3c(C)coc3c12 [MLS000112563] |
| > 300 | CCOC(=O)c1ccc2ncc(C(=O)OCC)c(Nc3ccc(N4CCOCC4)cc3)c2c1 [diethyl 4-[(4-morpholin-4-ylphenyl)amino]quinoline-3,6-dicarboxylate] |
| 44.5 | Cc1ccc(-n2c(=O)c3c4c(sc3n3c(S)nnc23)CCC4)cc1 [SMR000419881] |
| > 300 | CCn1nc(NC(=O)CC(C)C)c2cc3cccc(C)c3nc21 [SMR000542878] |
| 40 | N#Cc1c2n(c3c(-c4ccccc4)ncnc13)CCC2 [MLS000104266] |
| > 300 | CN1CCc2c(sc3c2c(=O)n(-c2ccccc2)c2nnc(SCc4ccccc4)n32)C1 [SMR000039895] |
| 2.56 | Nc1nonc1-n1nnc(C(=O)NN=Cc2cccc(F)c2)c1CN1CCCCCC1 [1-(4-amino-1,2,5-oxadiazol-3-yl)-5-(1-azepanylmethyl)-N-[(3-fluorophenyl)methylideneamino]-4-triazolecarboxamide] |
| > 300 | CCN1CCN(c2cc(C)c3cc(NC(=O)CCC(=O)Nc4ccc(OC)cc4OC)ccc3n2)CC1 [N'-(2,4-dimethoxyphenyl)-N-[2-(4-ethyl-1-piperazinyl)-4-methyl-6-quinolinyl]butanediamide] |
| > 300 | c1cncc(-c2nc(NCc3ccc4c(c3)OCO4)c3ccccc3n2)c1 [N-(1,3-benzodioxol-5-ylmethyl)-2-(3-pyridinyl)-4-quinazolinamine] |
| 30.7 | c1cncc(-c2nc(NCCCn3ccnc3)c3ccccc3n2)c1 [SMR000384722] |
| > 300 | COc1cccc2cc(CC(=O)c3ccccc3)c(=O)oc12 [8-methoxy-3-(2-oxo-2-phenylethyl)-2H-chromen-2-one] |
| > 300 | CN(C)c1ccc(/N=N/c2ccc(S(N)(=O)=O)cc2)cc1 |

| EC50 [µM] | SMILES |
| --- | --- |
| > 300 | COc1ccc2c(c1)-c1c(ssc1=S)C(C)(C)N2C(=O)CSC1=NCCS1 [2-(4,5-dihydrothiazol-2-ylthio)-1-(8-methoxy-4,4-dimethyl-1-sulfanylidene-5-dithiolo[3,4-c]quinolinyl)ethanone] |
| > 300 | CCc1nn(CC(=O)NCCC(C)C)c(=O)c2cc3c(OC)cccc3n12 [2-(4-ethyl-9-methoxy-1-oxo-[1,2,4]triazino[4,5-a]indol-2-yl)-N-(3-methylbutyl)acetamide] |
| 5.16 | CCN(CC)Cc1c(C(=O)NN=Cc2cccs2)nnn1-c1nonc1N [1-(4-amino-1,2,5-oxadiazol-3-yl)-5-(diethylaminomethyl)-N-(thiophen-2-ylmethylideneamino)triazole-4-carboxamide] |
| > 300 | COc1cccc(NC2=CC(=O)CC(C)(C)C2)c1 |
| > 300 | O=C(NCC(c1ccco1)N1CCN(c2ccc(F)cc2)CC1)c1ccc2c(c1)OCO2 (configuration not stated) [N-[2-[4-(4-fluorophenyl)-1-piperazinyl]-2-(2-furanyl)ethyl]-1,3-benzodioxole-5-carboxamide] |
| 23.8 | CC(=O)Nc1cc(-c2ccc(Cl)cc2)n[nH]1 [N-[5-(4-chlorophenyl)-1H-pyrazol-3-yl]acetamide] |
| 29.5 | COc1ccc2nc(C)cc(N3CCN(c4ccccc4)CC3)c2c1 [SMR000595708] |
| 28.6 | C/C(C=NNC(=O)c1nnn(-c2nonc2N)c1CN1CCCCC1)=C\c1ccccc1 [1-(4-azanyl-1,2,5-oxadiazol-3-yl)-N-[[(E)-2-methyl-3-phenyl-prop-2-enylidene]amino]-5-(piperidin-1-ylmethyl)-1,2,3-triazole-4-carboxamide] |
| > 300 | C=CCNC(=O)c1onc(CSc2cccc(OC)c2)c1C(=O)NCC=C [3-[(3-methoxyphenyl)sulfanylmethyl]-N4,N5-bis(prop-2-enyl)-1,2-oxazole-4,5-dicarboxamide] |
| > 300 | Cn1c(=S)n(CCC(=O)O)c2ccccc21 [SMR000273673] |
| > 300 | COc1cccc2cc(C(=O)OC(C)C(=O)c3ccc(C)cc3)c(=O)oc12 (configuration not stated) |
| 26.3 | Nc1nc(NCCN2CCOCC2)nc(NCc2ccccc2)c1[N+](=O)[O-] [SMR000434816] |
| > 300 | O=c1oc2cc(O)ccc2cc1-c1ccccc1 [7-Hydroxy-3-phenyl-chromen-2-one] |
| 28.2 | CN(c1ncnc(N)c1[N+](=O)[O-])C1CCS(=O)(=O)C1 (configuration not stated) [SMR000347974] |
| > 300 | Cc1ccc(S(=O)(=O)NNC(=O)c2cccc(O)c2)cc1 [3-hydroxy-N'-(4-methylphenyl)sulfonylbenzohydrazide] |
| 49.2 | COCCn1c(SCC(=O)Nc2ccc(Cl)cn2)nnc1-c1ccncc1 [N-(5-chloranylpyridin-2-yl)-2-[[4-(2-methoxyethyl)-5-pyridin-4-yl-1,2,4-triazol-3-yl]sulfanyl]ethanamide] |
| > 300 | O=C(NNC(=O)C1[C@H]2CCCC[C@@H]12)c1ccc(=O)oc1 (some centres not stated) [MLS000768334] |
| > 300 | COc1ccc(CN(CC(=O)NCc2ccc(F)cc2)C(=O)CCC(=O)Nc2ccccn2)cc1 [N-[(4-Fluoro-benzylcarbamoyl)-methyl]-N-(4-methoxy-benzyl)-N'-pyridin-2-yl-succinamide] |
| > 300 | Cc1ccnc(NC(=O)Cn2cc([N+](=O)[O-])cn2)c1 [SMR000307337] |
| 43.9 | NS(=O)(=O)c1cc(C(=O)NNC2=c3ccccc3=NC2=O)ccc1Cl [2-chloro-5-[[(2-oxoindol-3-yl)amino]carbamoyl]benzenesulfonamide] |
| > 300 | COC(=O)Cc1ccc2sc(-c3ccccc3)nc2c1 [(2-Phenyl-benzothiazol-5-yl)-acetic acid methyl ester] |
